Results: US8530493B2, “Indolopyridines as Eg5 kinesin modulators” (4SC AG, priority 2006, dated 2013)

tested on: RKO p21 uninduced (proliferating) colon adenocarcinoma cells; assay: Alamar Blue cell viability assay, RKO p21 uninduced (proliferating); type: cell-based; conditions: Homo sapiens, Table B3, anti-proliferative/cytotoxic activity, 72 hours, read-out: −log EC50 RKO p21 uninduced (proliferating) (converted)
How it was run: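 Viability read by Alamar Blue fluorescence (ex 544, em 590 nm), normalised to untreated wells, after 72 h, 37° C, 5% CO2 compound exposure in triplicate. Cells were uninduced (no Ponasterone A), proliferating RKO colon carcinoma p27 or p21 subclones in DMEM with 10% FCS; values are −log EC50 (mol/l).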

**Q.** How did the EC50 turn out when `COc1cc2c3c([nH]c2cc1F)[C@@H](c1cccc(O)c1)N1C(=O)N(CCN(C)CCO)C(=O)[C@]1(C)C3` [Example 246, (3aS,10R)-7-Fluoro-2-{2-[(2-hydroxy-ethyl)-methyl-amino]-ethyl}-10-(3-hydroxy-phenyl)-6-methoxy-3a-methyl-3a,4,9,10-tetrahydro-2,9,10a-triaza-cyclopenta[b]fluorene-1,3-dione] was run?
**A.** 39.8 to 251 nM

**Q.** With `C[C@@]12Cc3c([nH]c4ccc(OC(F)F)cc34)[C@@H](c3cccc(O)c3)N1C(=O)N(CCCNCCO)C2=O` (racemic) [Example 201, (3aSR,10RS)-6-(1,1-Difluoro-methoxy)-2-[3-(2-hydroxy-ethylamino)-propyl]-10-(3-hydroxy-phenyl)-3a-methyl-3a,4,9,10-tetrahydro-2,2,10a-triaza-cyclopenta[b]fluorene-1,3-dione] as the molecule, how does the EC50 read?
**A.** 39.8 to 251 nM

**Q.** How did the EC50 turn out when `CN(C)CCCN1C(=O)N2[C@H](c3cccc(O)c3)c3[nH]c4ccc(OC(F)F)cc4c3C[C@@]2(C)C1=O` (racemic) [Example 314, (3aSR,10RS)-6-(1,1-Difluoro-methoxy)-2-(3-dimethylamino-propyl)-10-(3-hydroxy-phenyl)-3a-methyl-3a,4,9,10-tetrahydro-2,9,10a-triaza-cyclopenta[b]fluorene-1,3-dione] was run?
**A.** ≤ 39.8 nM

**Q.** With `CCOc1ccc2[nH]c3c(c2c1)C[C@@]1(C)C(=O)N(CCCN2CC=CC2)C(=O)N1[C@@H]3c1cccc(O)c1` (racemic) [Example 222, (3aSR,10RS)-2-[3-(2,5-Dihydro-pyrrol-1-yl)-propyl]-6-ethoxy-10-(3-hydroxy-phenyl)-3a-methyl-3a,4,9,10-tetrahydro-2,9,10a-triaza-cyclopenta[b]fluorene-1,3-dione] as the molecule, how does the EC50 read?
**A.** 39.8 to 251 nM

**Q.** For `COCCNCCCN1C(=O)N2[C@H](c3cccc(O)c3)c3[nH]c4ccc(Br)cc4c3C[C@@]2(C)C1=O` (racemic) [Example 214, (3aSR,10RS)-6-Bromo-10-(3-hydroxy-phenyl)-2-[3-(2-methoxy-ethylamino)-propyl]-3a-methyl-3a,4,9,10-tetrahydro-2,9,10a-triaza-cyclopenta[b]fluorene-1,3-dione], which EC50 is on record?
**A.** ≤ 39.8 nM

**Q.** Which EC50 does the source give for `CCOc1ccc2[nH]c3c(c2c1)C[C@@]1(C)C(=O)N(CCNCCO)C(=O)N1[C@@H]3c1cccc(O)c1` (racemic) [Example 159, (3aSR,10RS)-6-Ethoxy-2-[2-(2-hydroxy-ethylamino)-ethyl]-10-(3-hydroxy-phenyl)-3a-methyl-3a,4,9,10-tetrahydro-2,9,10a-triaza-cyclopenta[b]fluorene-1,3-dione] here?
**A.** 39.8 to 251 nM

**Q.** `C[C@@]12Cc3c([nH]c4cc(F)c(Cl)cc34)[C@@H](c3cccc(O)c3)N1C(=O)N(CCN1CCCCCC1)C2=O` (racemic) [Example 361, (3aSR,10RS)-2-(2-Azepan-1-yl-ethyl)-6-chloro-7-fluoro-10-(3-hydroxy-phenyl)-3a-methyl-3a,4,9,10-tetrahydro-2,9,10a-triaza-cyclopenta[b]fluorene-1,3-dione] was tested. Which EC50 did it give?
**A.** 39.8 to 251 nM

**Q.** `COCCNCCN1C(=O)N2[C@H](c3cccc(O)c3)c3[nH]c4cc(F)c(Cl)cc4c3C[C@@]2(C)C1=O` (racemic) [Example 343, (3aSR,10RS)-6-Chloro-7-fluoro-10-(3-hydroxy-phenyl)-2-[2-(2-methoxy-ethylamino)-ethyl]-3a-methyl-3a,4,9,10-tetrahydro-2,9,10a-triaza-cyclopenta[b]fluorene-1,3-dione] was tested. Which EC50 did it give?
**A.** ≤ 39.8 nM

**Q.** For `C=CCNCCN1C(=O)N2[C@H](c3cccc(O)c3)c3[nH]c4cc(F)c(Cl)cc4c3C[C@@]2(C)C1=O` (racemic) [Example 346, (3aSR,10RS)-2-(2-Allylamino-ethyl)-6-chloro-7-fluoro-10-(3-hydroxy-phenyl)-3a-methyl-3a,4,9,10-tetrahydro-2,9,10a-triaza-cyclopenta[b]fluorene-1,3-dione], which EC50 is on record?
**A.** ≤ 39.8 nM

**Q.** `COc1cc2c3c([nH]c2cc1F)[C@@H](c1cccc(O)c1)N1C(=O)N(CCCN2CCN(C)CC2)C(=O)[C@]1(C)C3` (racemic) [Example 325, (3aSR,10RS)-7-Fluoro-10-(3-hydroxy-phenyl)-6-methoxy-3a-methyl-2-[3-(4-methyl-piperazin-1-yl)-propyl]-3a,4,9,10-tetrahydro-2,9,10a-triaza-cyclopenta[b]fluorene-1,3-dione] was tested. Which EC50 did it give?
**A.** 39.8 to 251 nM

**Q.** How did the EC50 turn out when `COc1cc2c3c([nH]c2cc1F)[C@@H](c1cccc(O)c1)N1C(=O)N(CCCN2CC=CC2)C(=O)[C@]1(C)C3` (racemic) [Example 323, (3aSR,10RS)-2-[3-(2,5-Dihydro-pyrrol-1-yl)-propyl]-7-fluoro-10-(3-hydroxy-phenyl)-6-methoxy-3a-methyl-3a,4,9,10-tetrahydro-2,9,10a-triaza-cyclopenta[b]fluorene-1,3-dione] was run?
**A.** 39.8 to 251 nM

**Q.** `C=CCN(C)CCN1C(=O)N2[C@H](c3cccc(O)c3)c3[nH]c4ccc(OCC)cc4c3C[C@@]2(C)C1=O` (racemic) [Example 300, (3aSR,10RS)-2-[2-(Allyl-methyl-amino)-ethyl]-6-ethoxy-10-(3-hydroxy-phenyl)-3a-methyl-3a,4,9,10-tetrahydro-2,9,10a-triaza-cyclopenta[b]fluorene-1,3-dione] was tested. Which EC50 did it give?
**A.** 39.8 to 251 nM

**Q.** `C[C@@]12Cc3c([nH]c4ccc(OC(F)F)cc34)[C@@H](c3cccc(O)c3)N1C(=O)N(CCNCC1CC1)C2=O` (racemic) [Example 270, (3aSR,10RS)-2-[2-(Cyclopropylmethyl-amino)-ethyl]-6-(1,1-difluoro-methoxy)-10-(3-hydroxy-phenyl)-3a-methyl-3a,4,9,10-tetrahydro-2,9,10a-triaza-cyclopenta[b]fluorene-1,3-dione] was tested. Which EC50 did it give?
**A.** ≤ 39.8 nM

**Q.** For `COc1ccc2[nH]c3c(c2c1)C[C@@]1(C)C(=O)N(CCCNCC2CC2)C(=O)N1[C@@H]3c1cccc(O)c1` [Example 535, (3aS,10R)-2-[3-(Cyclopropylmethyl-amino)-propyl]-10-(3-hydroxy-phenyl)-6-methoxy-3a-methyl-3a,4,9,10-tetrahydro-2,9,10a-triaza-cyclopenta[b]fluorene-1,3-dione], which EC50 is on record?
**A.** ≤ 39.8 nM

**Q.** With `CCOc1ccc2[nH]c3c(c2c1)C[C@@]1(C)C(=O)N(CCN(CC)CC)C(=O)N1[C@@H]3c1cccc(O)c1` (racemic) [Example 162, (3aSR,10RS)-2-(2-Diethylamino-ethyl)-6-ethoxy-10-(3-hydroxy-phenyl)-3a-methyl-3a,4,9,10-tetrahydro-2,9,10a-triaza-cyclopenta[b]fluorene-1,3-dione] as the molecule, how does the EC50 read?
**A.** 39.8 to 251 nM

**Q.** `COc1cc2c3c([nH]c2cc1F)[C@@H](c1cccc(O)c1)N1C(=O)N(CCNC2CCC2)C(=O)[C@]1(C)C3` (racemic) [Example 426, (3aSR,10RS)-2-(2-Cyclobutylamino-ethyl)-7-fluoro-10-(3-hydroxy-phenyl)-6-methoxy-3a-methyl-3a,4,9,10-tetrahydro-2,9,10a-triaza-cyclopenta[b]fluorene-1,3-dione] was tested. Which EC50 did it give?
**A.** ≤ 39.8 nM

**Q.** `CC(=O)N1CCN(CCCN2C(=O)N3[C@H](c4cccc(O)c4)c4[nH]c5cc(F)c(Cl)cc5c4C[C@@]3(C)C2=O)CC1` (racemic) [Example 482, (3aSR,10RS)-2-[3-(4-Acetyl-piperazin-1-yl)-propyl]-6-chloro-7-fluoro-10-(3-hydroxy-phenyl)-3a-methyl-3a,4,9,10-tetrahydro-2,9,10a-triaza-cyclopenta[b]fluorene-1,3-dione] was tested. Which EC50 did it give?
**A.** 39.8 to 251 nM

**Q.** How did the EC50 turn out when `CCN(CC)CCCN1C(=O)N2[C@H](c3cccc(O)c3)c3[nH]c4ccc(OC(F)F)cc4c3C[C@@]2(C)C1=O` (racemic) [Example 176, (3aSR,10RS)-2-(3-Diethylamino-propyl)-6-(1,1-difluoro-methoxy)-10-(3-hydroxy-phenyl)-3a-methyl-3a,4,9,10-tetrahydro-2,9,10a-triaza-cyclopenta[b]fluorene-1,3-dione] was run?
**A.** ≤ 39.8 nM

**Q.** `C[C@@]12Cc3c([nH]c4ccc(OC(F)F)cc34)[C@@H](c3cccc(O)c3)N1C(=O)N(CCN1CCCC1)C2=O` (racemic) [Example 279, (3aSR,10RS)-6-(1,1-Difluoro-methoxy)-10-(3-hydroxy-phenyl)-3a-methyl-2-(2-pyrrolidin-1-yl-ethyl)-3a,4,9,10-tetrahydro-2,9,10a-triaza-cyclopenta[b]fluorene-1,3-dione] was tested. Which EC50 did it give?
**A.** ≤ 39.8 nM

**Q.** `C[C@@]12Cc3c([nH]c4ccc(Br)cc34)[C@@H](c3cccc(O)c3)N1C(=O)N(CCN1CCOCC1)C2=O` (racemic) [Example 388, (3aSR,10RS)-6-Bromo-10-(3-hydroxy-phenyl)-3a-methyl-2-(2-morpholin-4-yl-ethyl)-3a,4,9,10-tetrahydro-2,9,10a-triaza-cyclopenta[b]fluorene-1,3-dione] was tested. Which EC50 did it give?
**A.** 39.8 to 251 nM

**Q.** `COCCNCCN1C(=O)N2[C@H](c3cccc(O)c3)c3[nH]c4ccc(Br)cc4c3C[C@@]2(C)C1=O` (racemic) [Example 377, (3aSR,10RS)-6-Bromo-10-(3-hydroxy-phenyl)-2-[2-(2-methoxy-ethylamino)-ethyl]-3a-methyl-3a,4,9,10-tetrahydro-2,9,10a-triaza-cyclopenta[b]fluorene-1,3-dione] was tested. Which EC50 did it give?
**A.** ≤ 39.8 nM

**Q.** Which EC50 does the source give for `C#CCNCCCN1C(=O)N2[C@H](c3cccc(O)c3)c3[nH]c4cc(F)c(OC)cc4c3C[C@@]2(C)C1=O` (racemic) [Example 309, (3aSR,10RS)-7-Fluoro-10-(3-hydroxy-phenyl)-6-methoxy-3a-methyl-2-(3-prop-2-ynylamino-propyl)-3a,4,9,10-tetrahydro-2,9,10a-triaza-cyclopenta[b]fluorene-1,3-dione] here?
**A.** 39.8 to 251 nM

**Q.** Which EC50 does the source give for `COc1ccc2[nH]c3c(c2c1)C[C@@]1(C)C(=O)N(CCCCl)C(=O)N1[C@@H]3c1cccc(O)c1` [Example 55a, (3aS,10R)-2-(3-Chloro-propyl)-10-(3-hydroxy-phenyl)-6-methoxy-3a-methyl-3a,4,9,10-tetrahydro-2,9,10a-triaza-cyclopenta[b]fluorene-1,3-dione] here?
**A.** 39.8 to 251 nM

**Q.** How did the EC50 turn out when `COc1cc2c3c([nH]c2cc1F)[C@@H](c1cccc(O)c1)N1C(=O)N(CCCN2CCCC2)C(=O)[C@]1(C)C3` (racemic) [Example 322, (3aSR,10RS)-7-Fluoro-10-(3-hydroxy-phenyl)-6-methoxy-3a-methyl-2-(3-pyrrolidin-1-yl-propyl)-3a,4,9,10-tetrahydro-2,9,10a-triaza-cyclopenta[b]fluorene-1,3-dione] was run?
**A.** 39.8 to 251 nM
